# Assay results as given in patent US6495591B1, “Fungal efflux pump inhibitors” (Essential Therapeutics, Inc., priority 1997, dated 2002).
# Like-named read-outs stand apart in the source and are kept apart here.
# Tests used:
# [1] = target: pFLU (MF) efflux pump in S. cerevisiae YEM-38 (Candida albicans, UniProt G1UB37); experiment: cell-based; assay type: cell-based, C. albicans
# [2] = tested on: pCgBEN (MF) efflux pump in S. cerevisiae YEM-40; assay type: cell-based, C. glabrata; settings: YEM-40 pCgBEN; fluconazole fixed at FLUhalf 2.8
# [3] = tested on: YEM 27 C. albicans ΔCDR1ΔCDR2 ΔBENΔFLU1; experiment: microbe, parasite or virus in culture; assay type: cell-based; settings: YEM 27, 24 hrs, 80% inhibition; for MIC of compound in the presence of fluconazole (+): 1/8 × MIC of fluconazole
# Aspergillus fumigatus = experiment: FEPI MICs in combination with 1/4 the azole's MIC (Table 12); assay type: cell-based; settings: for FEPI MIC with itraconazole, 60% Inh / FEPI MIC with itraconazole, 80% Inh: itraconazole 0.063 μg/ml (1/4 MIC); for FEPI MIC with itraconazole, 60% Inh / FEPI MIC with ketoconazole, 60% Inh: 60% inhibition; for FEPI MIC with itraconazole, 80% Inh / FEPI MIC with ketoconazole, 80% Inh / FEPI MIC (alone): 80% inhibition; for FEPI MIC with ketoconazole, 60% Inh / FEPI MIC with ketoconazole, 80% Inh: ketoconazole 4 μg/ml (1/4 MIC); for FEPI MIC (alone): no azole, 35° C., CM Broth
# Description: The combinations were tested against a series of Candida strain with known expression of efflux pumps or with complete deletion of all known pumps and Aspergillus fumigatus. Results are reported as minimum inhibitory concentration (MIC) of […] in the presence or absence of […]. A total of 27 distinct milbemycins were studied.
# [4] = target: pCDR2 (ABC) efflux pump in S. cerevisiae YEM-37 (Candida albicans, UniProt P78595); experiment: cell-based; assay type: cell-based, C. albicans
# YEM 51 C. glabrata wt = experiment: FEPI MIC with/without 1/8 fluconazole MIC at 24 hrs (Table 11); assay type: cell-based; settings: for MIC of compound in the absence of fluconazole (−): YEM 51, 24 hrs, 80% inhibition
# [5] = tested on: YEM 24 C. albicans ΔCDR1, ΔCDR2; experiment: microbe, parasite or virus in culture; assay type: cell-based; settings: YEM 24, 24 hrs, 80% inhibition; for MIC of compound in the presence of fluconazole (+): 1/8 × MIC of fluconazole
# [6] = tested on: YEM 17 C. glabrata, CgCDR up; assay type: cell-based; settings: 24 hrs, 80% inhibition; for MIC of compound in the presence of fluconazole (+): 1/8 × MIC of fluconazole
# [7] = target: pCgCDR (ABC) efflux pump in S. cerevisiae YEM-39 (Candida glabrata, UniProt Q6FK23); experiment: cell-based; assay type: cell-based, C. glabrata
# YEM 30 C. albicans wt = experiment: FEPI MIC with/without 1/8 fluconazole MIC at 24 hrs (Table 11); assay type: cell-based; settings: for MIC of compound in the absence of fluconazole (−): YEM 30, 24 hrs, 80% inhibition
# [8] = tested on: YEM 13 C. albicans BEN up; experiment: microbe, parasite or virus in culture; assay type: cell-based; settings: YEM 13, 24 hrs, 80% inhibition; for MIC of compound in the presence of fluconazole (+): 1/8 × MIC of fluconazole
# [9] = tested on: YEM 15 C. albicans, CDR1CDR2 up; experiment: microbe, parasite or virus in culture; assay type: cell-based; settings: YEM 15, 24 hrs, 80% inhibition; for MIC of compound in the presence of fluconazole (+): 1/8 × MIC of fluconazole
# YEM 53 C. krusei = experiment: FEPI MIC with/without 1/8 fluconazole MIC at 24 hrs (Table 11); assay type: cell-based; settings: for MIC of compound in the absence of fluconazole (−): YEM 53, 24 hrs, 80% inhibition
# [10] = target: pCDRI (ABC) efflux pump in S. cerevisiae YEM-1 (Candida albicans, UniProt P43071); experiment: cell-based; assay type: cell-based, C. albicans
# [11] = target: pBEN (MF) efflux pump in S. cerevisiae YEM-2 (Candida albicans, UniProt P28873); experiment: cell-based; assay type: cell-based, C. albicans
# [12] = read-out: FEPIhalf (concentration needed to reduce activity of efflux pump by 50%), YEM-38 pFLU, fluconazole fixed at FLUhalf 2
# [13] = read-out: FEPIhalf (concentration needed to reduce activity of efflux pump by 50%), YEM-37 pCDR2, fluconazole fixed at FLUhalf 1
# [14] = read-out: FEPIhalf (concentration needed to reduce activity of efflux pump by 50%), YEM-39 pCgCDR, fluconazole fixed at FLUhalf 4
# [15] = read-out: FEPIhalf (concentration needed to reduce activity of efflux pump by 50%), YEM-1 pCDRI, fluconazole fixed at FLUhalf 5.6
# [16] = read-out: FEPIhalf (concentration needed to reduce activity of efflux pump by 50%), YEM-2 pBEN, fluconazole fixed at FLUhalf 5.6
# pFLU (MF) efflux pump in S. cerevisiae YEM-38, sequence (G1UB37 whole entry): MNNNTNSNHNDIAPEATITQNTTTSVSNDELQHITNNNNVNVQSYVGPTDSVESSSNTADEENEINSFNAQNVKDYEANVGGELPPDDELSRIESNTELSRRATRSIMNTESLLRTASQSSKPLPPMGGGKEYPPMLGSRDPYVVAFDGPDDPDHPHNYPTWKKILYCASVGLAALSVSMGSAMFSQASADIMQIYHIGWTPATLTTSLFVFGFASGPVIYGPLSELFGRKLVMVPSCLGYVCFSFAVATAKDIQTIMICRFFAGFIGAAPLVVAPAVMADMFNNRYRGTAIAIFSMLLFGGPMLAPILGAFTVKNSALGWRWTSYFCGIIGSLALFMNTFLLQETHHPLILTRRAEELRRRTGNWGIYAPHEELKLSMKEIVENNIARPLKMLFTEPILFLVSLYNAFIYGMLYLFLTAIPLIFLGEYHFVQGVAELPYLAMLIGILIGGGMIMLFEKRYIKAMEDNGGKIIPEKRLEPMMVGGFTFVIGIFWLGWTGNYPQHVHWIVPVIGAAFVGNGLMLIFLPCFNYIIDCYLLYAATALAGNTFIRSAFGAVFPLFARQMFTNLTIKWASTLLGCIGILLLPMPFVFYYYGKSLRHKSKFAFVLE
# pCgCDR (ABC) efflux pump in S. cerevisiae YEM-39, sequence (Q6FK23 whole entry): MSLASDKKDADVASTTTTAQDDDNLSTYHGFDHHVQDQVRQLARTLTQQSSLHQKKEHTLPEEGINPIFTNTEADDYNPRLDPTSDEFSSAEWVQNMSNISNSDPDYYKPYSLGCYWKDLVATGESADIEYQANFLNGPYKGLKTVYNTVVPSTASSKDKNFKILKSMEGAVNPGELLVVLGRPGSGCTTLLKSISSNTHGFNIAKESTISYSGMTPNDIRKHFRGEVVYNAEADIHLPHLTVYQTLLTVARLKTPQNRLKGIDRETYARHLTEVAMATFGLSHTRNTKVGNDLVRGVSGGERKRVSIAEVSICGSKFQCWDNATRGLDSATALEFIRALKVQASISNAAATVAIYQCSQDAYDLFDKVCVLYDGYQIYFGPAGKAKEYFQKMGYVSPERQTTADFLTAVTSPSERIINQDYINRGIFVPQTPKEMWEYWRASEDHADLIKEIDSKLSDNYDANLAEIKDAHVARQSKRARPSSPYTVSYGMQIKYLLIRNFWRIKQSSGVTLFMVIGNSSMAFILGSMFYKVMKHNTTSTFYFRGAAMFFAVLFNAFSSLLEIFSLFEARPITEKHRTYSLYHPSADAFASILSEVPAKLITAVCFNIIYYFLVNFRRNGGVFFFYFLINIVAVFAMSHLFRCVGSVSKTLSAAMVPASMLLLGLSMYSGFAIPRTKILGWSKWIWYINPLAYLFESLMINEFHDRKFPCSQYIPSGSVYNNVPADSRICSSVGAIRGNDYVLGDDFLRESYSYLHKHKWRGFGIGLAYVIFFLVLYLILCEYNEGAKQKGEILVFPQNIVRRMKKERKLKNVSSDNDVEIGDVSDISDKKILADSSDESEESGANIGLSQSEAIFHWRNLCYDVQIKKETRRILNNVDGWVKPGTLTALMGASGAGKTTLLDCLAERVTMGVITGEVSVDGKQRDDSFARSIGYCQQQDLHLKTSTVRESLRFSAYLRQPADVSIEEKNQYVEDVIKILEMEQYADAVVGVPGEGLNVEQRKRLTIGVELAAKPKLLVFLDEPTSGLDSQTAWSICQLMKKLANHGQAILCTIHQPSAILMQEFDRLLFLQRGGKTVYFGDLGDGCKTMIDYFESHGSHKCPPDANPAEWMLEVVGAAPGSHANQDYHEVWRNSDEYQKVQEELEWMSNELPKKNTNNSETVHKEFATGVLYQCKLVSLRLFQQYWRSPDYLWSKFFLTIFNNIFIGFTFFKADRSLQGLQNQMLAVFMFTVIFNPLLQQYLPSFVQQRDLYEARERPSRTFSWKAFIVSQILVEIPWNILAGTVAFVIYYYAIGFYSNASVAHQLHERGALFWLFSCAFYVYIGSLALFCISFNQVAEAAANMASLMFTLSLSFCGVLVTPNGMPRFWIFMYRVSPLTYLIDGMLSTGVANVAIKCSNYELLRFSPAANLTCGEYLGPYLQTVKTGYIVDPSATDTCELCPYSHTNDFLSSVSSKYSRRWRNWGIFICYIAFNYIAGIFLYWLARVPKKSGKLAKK
# pCDRI (ABC) efflux pump in S. cerevisiae YEM-1, sequence (P43071 whole entry): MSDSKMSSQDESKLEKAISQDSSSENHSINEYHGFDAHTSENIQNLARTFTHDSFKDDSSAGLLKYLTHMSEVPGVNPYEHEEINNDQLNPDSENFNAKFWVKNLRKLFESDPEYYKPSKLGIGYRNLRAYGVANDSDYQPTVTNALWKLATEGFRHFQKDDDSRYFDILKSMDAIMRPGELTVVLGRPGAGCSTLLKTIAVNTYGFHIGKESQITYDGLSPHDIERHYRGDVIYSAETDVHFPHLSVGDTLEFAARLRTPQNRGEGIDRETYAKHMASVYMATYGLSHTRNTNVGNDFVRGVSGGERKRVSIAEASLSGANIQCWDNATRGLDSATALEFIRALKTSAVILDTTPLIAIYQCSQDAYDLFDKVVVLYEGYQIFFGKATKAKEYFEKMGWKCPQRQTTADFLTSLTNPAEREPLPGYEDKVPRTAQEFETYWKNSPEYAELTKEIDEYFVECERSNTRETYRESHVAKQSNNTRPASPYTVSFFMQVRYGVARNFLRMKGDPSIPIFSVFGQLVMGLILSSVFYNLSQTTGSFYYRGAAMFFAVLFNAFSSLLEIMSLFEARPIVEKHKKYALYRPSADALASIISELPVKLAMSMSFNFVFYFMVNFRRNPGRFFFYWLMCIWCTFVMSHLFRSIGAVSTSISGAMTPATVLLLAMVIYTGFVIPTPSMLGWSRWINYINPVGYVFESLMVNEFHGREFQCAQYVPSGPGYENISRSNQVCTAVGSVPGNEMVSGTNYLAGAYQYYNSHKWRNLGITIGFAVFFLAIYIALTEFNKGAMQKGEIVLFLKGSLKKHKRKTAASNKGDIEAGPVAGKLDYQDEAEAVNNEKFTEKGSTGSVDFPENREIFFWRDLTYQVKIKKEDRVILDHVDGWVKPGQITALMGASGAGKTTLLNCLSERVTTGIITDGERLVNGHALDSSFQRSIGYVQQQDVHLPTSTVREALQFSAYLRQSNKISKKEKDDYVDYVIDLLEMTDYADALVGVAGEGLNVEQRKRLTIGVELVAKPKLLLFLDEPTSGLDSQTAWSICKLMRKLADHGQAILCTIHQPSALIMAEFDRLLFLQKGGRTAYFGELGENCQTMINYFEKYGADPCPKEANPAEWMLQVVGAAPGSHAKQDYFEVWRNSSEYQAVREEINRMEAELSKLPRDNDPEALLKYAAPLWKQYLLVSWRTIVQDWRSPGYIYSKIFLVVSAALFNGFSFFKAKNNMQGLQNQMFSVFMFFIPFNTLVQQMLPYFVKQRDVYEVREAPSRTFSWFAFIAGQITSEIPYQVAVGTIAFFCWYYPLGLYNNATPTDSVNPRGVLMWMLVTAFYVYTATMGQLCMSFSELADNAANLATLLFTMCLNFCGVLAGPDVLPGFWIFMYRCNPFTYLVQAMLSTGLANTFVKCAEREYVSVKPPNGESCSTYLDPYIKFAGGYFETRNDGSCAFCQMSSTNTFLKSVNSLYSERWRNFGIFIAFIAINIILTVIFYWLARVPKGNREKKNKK
# pCDR2 (ABC) efflux pump in S. cerevisiae YEM-37, sequence (P78595 whole entry): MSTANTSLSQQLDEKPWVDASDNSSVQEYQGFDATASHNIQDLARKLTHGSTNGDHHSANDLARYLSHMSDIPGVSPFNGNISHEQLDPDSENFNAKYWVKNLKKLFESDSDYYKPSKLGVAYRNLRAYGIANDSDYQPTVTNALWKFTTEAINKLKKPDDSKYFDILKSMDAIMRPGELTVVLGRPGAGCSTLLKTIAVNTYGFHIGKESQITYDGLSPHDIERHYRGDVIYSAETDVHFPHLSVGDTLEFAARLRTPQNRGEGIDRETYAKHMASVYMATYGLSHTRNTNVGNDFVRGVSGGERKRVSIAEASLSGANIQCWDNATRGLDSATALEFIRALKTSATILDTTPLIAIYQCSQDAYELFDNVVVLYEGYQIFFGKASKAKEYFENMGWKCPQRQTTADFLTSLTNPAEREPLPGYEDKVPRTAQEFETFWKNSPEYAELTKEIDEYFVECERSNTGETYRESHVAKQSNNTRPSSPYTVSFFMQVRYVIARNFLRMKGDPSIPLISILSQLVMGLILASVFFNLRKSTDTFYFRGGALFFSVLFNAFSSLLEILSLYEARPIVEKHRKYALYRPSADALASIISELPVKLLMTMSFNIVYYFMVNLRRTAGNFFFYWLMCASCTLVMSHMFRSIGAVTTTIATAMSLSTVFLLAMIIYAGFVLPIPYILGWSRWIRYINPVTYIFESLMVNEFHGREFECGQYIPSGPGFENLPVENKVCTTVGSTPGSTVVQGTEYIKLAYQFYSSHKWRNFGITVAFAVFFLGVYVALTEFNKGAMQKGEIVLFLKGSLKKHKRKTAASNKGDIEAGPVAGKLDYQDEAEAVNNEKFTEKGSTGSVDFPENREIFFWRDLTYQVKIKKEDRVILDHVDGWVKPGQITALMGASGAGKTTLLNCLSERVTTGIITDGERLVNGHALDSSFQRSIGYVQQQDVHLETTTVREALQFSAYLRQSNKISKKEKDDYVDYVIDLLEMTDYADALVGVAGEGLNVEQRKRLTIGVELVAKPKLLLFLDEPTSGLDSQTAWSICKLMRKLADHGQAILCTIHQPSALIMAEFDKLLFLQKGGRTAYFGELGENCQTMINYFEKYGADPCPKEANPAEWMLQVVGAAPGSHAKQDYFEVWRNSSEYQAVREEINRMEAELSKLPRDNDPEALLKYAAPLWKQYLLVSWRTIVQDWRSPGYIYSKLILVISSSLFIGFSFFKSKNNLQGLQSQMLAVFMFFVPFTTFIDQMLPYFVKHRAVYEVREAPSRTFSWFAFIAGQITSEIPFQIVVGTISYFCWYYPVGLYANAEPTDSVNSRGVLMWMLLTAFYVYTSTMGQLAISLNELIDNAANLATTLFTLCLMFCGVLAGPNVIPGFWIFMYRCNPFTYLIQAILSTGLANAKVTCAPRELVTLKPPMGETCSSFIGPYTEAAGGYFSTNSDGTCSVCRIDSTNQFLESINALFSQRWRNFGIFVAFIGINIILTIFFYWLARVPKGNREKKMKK
Compound,FEPIhalf (concentration needed to reduce activity of efflux pump by 50%) [2],MIC of compound in the presence of fluconazole (+) [3],MIC of compound in the absence of fluconazole (−) [3],"FEPI MIC with fluconazole, 60% Inh (Aspergillus fumigatus)","FEPI MIC with fluconazole, 80% Inh (Aspergillus fumigatus)","FEPI MIC with itraconazole, 60% Inh (Aspergillus fumigatus)","FEPI MIC with itraconazole, 80% Inh (Aspergillus fumigatus)","FEPI MIC with ketoconazole, 60% Inh (Aspergillus fumigatus)","FEPI MIC with ketoconazole, 80% Inh (Aspergillus fumigatus)",FEPI MIC (alone) (Aspergillus fumigatus),MIC of compound in the presence of fluconazole (+) (YEM 51 C. glabrata wt),MIC of compound in the absence of fluconazole (−) (YEM 51 C. glabrata wt),MIC of compound in the presence of fluconazole (+) [5],MIC of compound in the absence of fluconazole (−) [5],MIC of compound in the presence of fluconazole (+) [6],MIC of compound in the absence of fluconazole (−) [6],MIC of compound in the presence of fluconazole (+) (YEM 30 C. albicans wt),MIC of compound in the absence of fluconazole (−) (YEM 30 C. albicans wt),MIC of compound in the presence of fluconazole (+) [8],MIC of compound in the absence of fluconazole (−) [8],also measured
"CCCCC(C)C(=O)OC1[C@@H](O)[C@]2(C[C@@H]3C[C@@H](C/C=C(\C)C[C@@H](C)/C=C/C=C4\CO[C@@H]5[C@H](OC)C(C)=CC(C(=O)O3)[C@]45O)O2)O[C@H](C)[C@H]1C (stereo partly drawn) [Compound 9, Milbemycin α6]",>64,> 64 µg/mL,> 64 µg/mL,64,>64,1,>64,≦0.063,≦0.063,>64,1 µg/mL,> 64 µg/mL,> 64 µg/mL,> 64 µg/mL,0.5 µg/mL,> 64 µg/mL,≦0.03,> 64 µg/mL,> 64 µg/mL,> 64 µg/mL,"IC50 [1, 12]: > 93.2 µM; IC50 [4, 13]: > 93200 nM; IC50 [7, 14]: 1.46 µM; MIC of compound in the presence of fluconazole (+) [9]: 0.125 µg/mL; MIC of compound in the absence of fluconazole (−) [9]: > 64 µg/mL; MIC of compound in the presence of fluconazole (+) (YEM 53 C. krusei): > 64 µg/mL; MIC of compound in the absence of fluconazole (−) (YEM 53 C. krusei): > 64 µg/mL; IC50 [10, 15]: 2910 nM; IC50 [11, 16]: > 93.2 µM"
"CC1=C[C@H]2C(=O)O[C@H]3C[C@@H](C/C=C(\C)C[C@@H](C)/C=C/C=C4\CO[C@H]([C@@H]1O)[C@@]42O)O[C@]1(C3)C[C@H](O)[C@H](C)[C@@H](/C(C)=C/C(C)C)O1 [Compound 15, LL-F2849α (nemedectinα)]",>64,> 64 µg/mL,> 64 µg/mL,0.25,>64,1,>64,0.25,0.25,>64,4 µg/mL,> 64 µg/mL,> 64 µg/mL,> 64 µg/mL,2 µg/mL,> 64 µg/mL,≦0.03,> 64 µg/mL,> 64 µg/mL,> 64 µg/mL,IC50 [1]: > 104 µM; IC50 [4]: 1630 nM; IC50 [7]: 6.53 µM; MIC of compound in the presence of fluconazole (+) [9]: 0.5 µg/mL; MIC of compound in the absence of fluconazole (−) [9]: > 64 µg/mL; MIC of compound in the presence of fluconazole (+) (YEM 53 C. krusei): > 64 µg/mL; MIC of compound in the absence of fluconazole (−) (YEM 53 C. krusei): > 64 µg/mL; IC50 [10]: 3260 nM; IC50 [11]: > 104 µM
"CO[C@@H]1C(C)=C[C@H]2C(=O)O[C@H]3C[C@@H](C/C=C(\C)C[C@@H](C)/C=C/C=C4\CO[C@H]1[C@@]42O)O[C@]1(C3)C[C@H](O)[C@H](C)[C@@H](/C(C)=C/C(C)C)O1 [Compound 16, LL-F2849λ (nemedectinλ)]",>64,> 64 µg/mL,> 64 µg/mL,>64,>64,1,>64,0.125,0.125,>64,2 µg/mL,> 64 µg/mL,> 64 µg/mL,> 64 µg/mL,32 µg/mL,> 64 µg/mL,≦0.03,> 64 µg/mL,64 µg/mL,> 64 µg/mL,"IC50 [1, 12]: > 102 µM; IC50 [4, 13]: 399 nM; IC50 [7, 14]: 102 µM; MIC of compound in the presence of fluconazole (+) [9]: 0.125 µg/mL; MIC of compound in the absence of fluconazole (−) [9]: > 64 µg/mL; MIC of compound in the presence of fluconazole (+) (YEM 53 C. krusei): > 64 µg/mL; MIC of compound in the absence of fluconazole (−) (YEM 53 C. krusei): > 64 µg/mL; IC50 [10, 15]: 1600 nM; IC50 [11, 16]: > 102 µM"
"CCC(CC)C(=O)OCC1=C[C@H]2C(=O)O[C@H]3C[C@@H](C/C=C(\C)C[C@@H](C)/C=C/C=C4\CO[C@H]([C@@H]1O)[C@@]42O)O[C@@]1(CC[C@H](C)[C@@H](C)O1)C3 [Compound 21, 4a-O-(2-ethyl)butyryl milbemycin α1]",>64,> 64 µg/mL,> 64 µg/mL,8,8,1,8,≦0.063,≦0.063,>64,8 µg/mL,> 64 µg/mL,> 64 µg/mL,> 64 µg/mL,8 µg/mL,> 64 µg/mL,0.125 µg/mL,> 64 µg/mL,> 64 µg/mL,> 64 µg/mL,IC50 [1]: > 99.6 µM; IC50 [4]: 6220 nM; IC50 [7]: > 99.6 µM; MIC of compound in the presence of fluconazole (+) [9]: 1 µg/mL; MIC of compound in the absence of fluconazole (−) [9]: > 64 µg/mL; MIC of compound in the presence of fluconazole (+) (YEM 53 C. krusei): 8 µg/mL; MIC of compound in the absence of fluconazole (−) (YEM 53 C. krusei): > 64 µg/mL; IC50 [10]: 1560 nM; IC50 [11]: > 99.6 µM
